The text below walks through data of EPA's ToxRefDB 2.

Molecules are shown by their SMILES.

Data set [1] relates to rat. To be noted: Multigenerational reproductive toxicity study, wistar, Oral, Gavage/Intubation, dose end: 2 generation.
Another data set relates to rabbit. To be noted: Prenatal developmental toxicity study, dutch, Oral, Gavage/Intubation, dose end: 18 GD.
For data set [2], the system named is rat. To be noted: Prenatal developmental toxicity study, sprague dawley, Oral, Gavage/Intubation, dose end: 15 GD.
In data set [3] the test system is rat. To be noted: Multigenerational reproductive toxicity study, sprague dawley, Oral, Feed, dose end: 2 generation.
Data set [4] has as its system rat. To be noted: Prenatal developmental toxicity study, sprague dawley, Oral, Gavage/Intubation, dose end: 15 GD. This is another data set of the same source.
The test system of data set [5] is rat. To be noted: Multigenerational reproductive toxicity study, sprague dawley, Oral, Feed, dose end: 2 generation. This is another data set of the same source.
Setting [6] is: group: offspring, developmental / offspring survival late / lactation index / lactation index.
Setting [7] is: group: parental, systemic / in life observation / body weight / body weight + systemic / in life observation / clinical signs / poor general condition.
[8] abbreviates: group: developmental, systemic / in life observation / body weight / fetal weight.
The mark [9] stands for this setting: group: maternal, reproductive / reproductive performance / resorptions / resorptions + systemic / in life observation / body weight / body weight gain + ….
Where [10] appears, read: group: developmental, developmental / developmental malformation / bone / [other] + developmental / developmental malformation / bone / incomplete ossification + ….
The mark [11] stands for this setting: group: maternal, systemic / in life observation / body weight / body weight gain.
The mark [12] stands for this setting: group: offspring, systemic / organ weight / kidney / absolute + systemic / organ weight / liver / absolute + systemic / pathology gross / kidney / enlarged + ….
Where [13] appears, read: group: parental, systemic / organ weight / liver / absolute + systemic / organ weight / kidney / absolute.
Setting [14] is: group: reproductive, reproductive / offspring survival early / birth index / live birth index.
The mark [15] stands for this setting: group: developmental, developmental / developmental malformation / bone / incomplete ossification + developmental / developmental malformation / bone / ….
Setting [16] is: group: maternal, systemic / in life observation / body weight / body weight gain + systemic / in life observation / food consumption / food consumption.
Where [17] appears, read: group: offspring, developmental / offspring survival late / viability index / viability index + developmental / developmental landmark / anogenital distance (….
Setting [18] is: group: offspring, systemic / organ weight / kidney / absolute + systemic / organ weight / liver / absolute + systemic / pathology microscopic / liver / ….
Where [19] appears, read: group: parental, systemic / in life observation / body weight / body weight + systemic / organ weight / kidney / absolute + systemic / organ weight / liver….
Where [20] appears, read: group: parental, systemic / organ weight / liver / absolute + systemic / pathology microscopic / liver / hypertrophy + systemic / organ weight / kidney / ….

On to `N#Cc1ccc(CC(=NNC(=O)Nc2ccc(OC(F)(F)F)cc2)c2cccc(C(F)(F)F)c2)cc1` (mixture of isomers) [Metaflumizone], for which, in the data set on rat [1] (setting [6]), the LEL was 50 mg/kg/day, the LOAEL was 50 mg/kg/day, the NEL was determined as 20 mg/kg/day and the NOAEL stood at 20 mg/kg/day. In addition, in the data set with rat [1] (setting [7]), the LEL is 50 mg/kg/day, the LOAEL was found to be 50 mg/kg/day, the NEL is 20 mg/kg/day and the no observed adverse effect level (NOAEL) turned out to be 20 mg/kg/day.
`Cc1cccc(N)c1N` [2,3-Diaminotoluene]: the LEL with rabbit (setting [8]) was 100 mg/kg/day; in the data set on rabbit (setting [9]), 100 mg/kg/day; with rat [2] (group: developmental, developmental / developmental malformation / bone / [other] + developmental / developmental malformation / bone / incomplete ossification), 100 mg/kg/day; in the data set on rat [2] (setting [11]), 300 mg/kg/day. In addition, the LOAEL in the data set on rabbit (setting [8]) is above 100 mg/kg/day; in the data set with rabbit (setting [9]), above 100 mg/kg/day; in the data set with rat [2] (setting [10]), above 300 mg/kg/day; in the data set with rat [2] (setting [11]) it was above 300 mg/kg/day. Besides, the NEL in the data set on rabbit (setting [8]) is 30 mg/kg/day; in the data set with rabbit (group: maternal, reproductive / reproductive performance / resorptions / resorptions + systemic / in life observation / body weight / body weight gain), 30 mg/kg/day; with rat [2] (setting [10]) it was 30 mg/kg/day; with rat [2] (setting [11]), 100 mg/kg/day. Moreover, the no-observed-adverse-effect level (NOAEL) in the data set on rabbit (setting [8]) was at least 100 mg/kg/day; in the data set on rabbit (setting [9]) it was at least 100 mg/kg/day; in the data set with rat [2] (setting [10]) it was at least 300 mg/kg/day; in the data set with rat [2] (setting [11]), at least 300 mg/kg/day.
Consider `CC(C)CCCCCCCOC(=O)c1ccccc1C(=O)OCCCCCCCC(C)C` [Diisodecyl phthalate], for which the LEL in the data set on rat [3] (setting [12]) was determined as 100 mg/kg/day; in the data set on rat [3] (setting [13]), 200 mg/kg/day; in the data set with rat [3] (setting [14]), 100 mg/kg/day; with rat [4] (setting [15]), 1000 mg/kg/day; in the data set on rat [4] (setting [16]), 1000 mg/kg/day; with rat [5] (setting [18]), 100 mg/kg/day. The LEL with rat [5] (setting [20]) and in the data set with rat [5] (setting [14]) was 100 mg/kg/day in each case. Also, the LOAEL in the data set on rat [3] (setting [12]) is above 200 mg/kg/day; with rat [3] (setting [13]), above 200 mg/kg/day; with rat [3] (setting [14]), above 200 mg/kg/day; in the data set on rat [4] (setting [15]) it was above 1000 mg/kg/day; in the data set with rat [4] (setting [16]), above 1000 mg/kg/day; with rat [5] (setting [17]), above 400 mg/kg/day. Further, the LOAEL in the data set on rat [5] (setting [19]) and in the data set with rat [5] (setting [14]) was above 400 mg/kg/day throughout. For the same molecule, the NEL in the data set with rat [3] (setting [12]) is 30 mg/kg/day; in the data set with rat [3] (group: parental, systemic / organ weight / liver / absolute), 100 mg/kg/day; in the data set on rat [3] (setting [14]), 30 mg/kg/day; in the data set on rat [4] (setting [15]), 500 mg/kg/day; in the data set on rat [4] (setting [16]) it was 500 mg/kg/day; in the data set on rat [5] (setting [18]), below 100 mg/kg/day. In addition, the NEL in the data set on rat [5] (setting [20]) and in the data set with rat [5] (setting [14]) was below 100 mg/kg/day throughout. Moreover, the no observed adverse effect level (NOAEL) in the data set with rat [3] (setting [12]) is at least 200 mg/kg/day; with rat [3] (setting [13]) it was at least 200 mg/kg/day; in the data set on rat [3] (setting [14]) it was at least 200 mg/kg/day; in the data set with rat [4] (setting [15]), at least 1000 mg/kg/day; in the data set with rat [4] (setting [16]), at least 1000 mg/kg/day; with rat [5] (setting [17]) it was at least 400 mg/kg/day. Moreover, the NOAEL in the data set on rat [5] (setting [19]) and in the data set with rat [5] (setting [14]) was at least 400 mg/kg/day throughout.
